Laboratory results: patent US20090197975A1, “COMPOSITIONS FORMULATED FOR SOLVENT-REGULATED DRUG RELEASE” (MIV Therapeutics Inc., priority 2005, published 2009)

Test: Paclitaxel composition droplets immersed in PBS for 72 hours (FIG. 3)
Format: physicochemical
Settings: 72 hours in PBS; DENA and DMSO present as solubilizing agents
Excerpt: FIG. 3 is two photographs comparing three drug compositions formulated in accordance with the invention. Each composition comprises the drug paclitaxel formulated with different compositional ratios of solvents, namely a first solvent comprising a mixture of 70% DENA and 30% DMSO and a second solvent comprising 70% castor oil and 30% soybean oil. The left-hand composition comprises 70% of the first solvent and 30% of the second solvent; the middle composition comprises 60% of the first solvent and 40% of the second solvent; and the right-hand composition comprises 50% of the first solvent and 50% of the second solvent.
In the example of FIG. 3, the release profile of a composition 10 comprising the water-insoluble lipophilic drug paclitaxel was investigated. Paclitaxel is a well-known chemotherapy agent. FIG. 3 compares three drug compositions comprising paclitaxel formulated with different compositional ratios of first and second solvents 14, 18. The concentration of paclitaxel is maintained at 20 weight percent in first solvent 14. In this example, first solvent 14 comprises a mixture of 70% DENA and 30% DMSO and second solvent 18 comprises 70% castor oil and 30% soybean oil. […]

paclitaxel precipitate visually detected in the PBS: No white precipitate
Compound: CC(=O)O[C@H]1C(=O)[C@@]2(C)[C@H]([C@H](OC(=O)c3ccccc3)[C@]3(O)C[C@H](OC(=O)[C@H](O)[C@@H](NC(=O)c4ccccc4)c4ccccc4)C(C)=C1C3(C)C)[C@]1(OC(C)=O)CO[C@@H]1C[C@@H]2O [paclitaxel]
